# Test results from patent US20250127725A1, “MAGNESIUM OXIDE TABLETS” (SETOLAS Holdings, Inc., priority 2021, published 2025).
# Legend:
# Type in all cases: physicochemical
# Conditions in all cases: magnesium oxide raw material
# [1] = Average particle size of magnesium oxide, laser diffraction scattering, MT3300 EX2
# Protocol: The average particle size and average particle diameter of the magnesium oxide particles of the present invention and magnesium hydroxide particles used as raw materials therefor can be measured according to laser diffraction scattering method with a commonly used instrument, such as a particle size analyzer (MT3300EX2 from Microtrac Bell Corporation).
# (§1) The physical properties of the magnesium oxide used in these examples were measured, and the results were as follows. • Average particle size: 7.691 μm (measured according to laser diffraction scattering using a Microtrac Bell MT3300 EX2) • Bulk density: 0.249 g/mL (measured with 100 mL stainless steel cup (actual mass value (g)/100 (mL)) • Angle of repose: 41.7° (measured using MT-1 Multitester from Seishin Enterprise Co., Ltd.)
# [2] = Bulk density, 100 mL stainless steel cup
# Protocol: The bulk density of magnesium oxide particles to be used in the present invention may be set to an upper limit of 0.8 g/mL or less, or 0.7 g/mL or less, since too high a density may cause a decrease in hardness. On the other hand, since too low bulk density may cause capping and lamination, the lower limit may be 0.1 g/mL or more, or 0.2 g/mL or more. Bulk density can be measured, e.g., using a 100 mL stainless steel cup (actual mass value (g)/100 (mL)).
# as §1
# The weighed raw materials of magnesium oxide and internal additives were put into a polyethylene bag (1100 mm×600 mm) and mixed by shaking the bag 30 times from side to side. After the mixing, the bulk density was measured using a 100 mL stainless steel cup (actual mass value (g)/100 (mL)).
# [formula] […]
# [3] = Angle of repose, Multitester MT-1
# Protocol: The angle of repose of magnesium oxide particles to be used in the present invention may be set to an upper limit of 50° or less, or 48° or less, since an excessively large angle of repose may lead to a variation in the mass of the resulting tablets during tableting due to deteriorated flowability. On the other hand, the lower limit of the angle of repose is not specified because the lower the angle of repose, the better. The angle of repose can be measured, e.g., using Multitester MT-1 from Seishin Enterprise Co., Ltd.
# as §1
# After mixing, the following items were evaluated. • Bulk density: Measured with 100 mL stainless steel cup (actual mass value (g)/100 (mL) • Angle of repose: Measured using MT-1 Multitester from Seishin Enterprise Co., Ltd.
smiles,measurement,setting,value
[O]=[Mg] [Magnesium oxide],Average particle size,[1],7.691 μm
same,Bulk density,[2],0.249 g/mL
same,Angle of repose,[3],41.7 °
